The values below are quoted from earlier work in patent publication US11590077B2, “Fulvestrant formulations and methods of their use” (EAGLE PHARMACEUTICALS, INC., priority 2017, dated 2023).

The conditions of the series: background statement.

With `C[C@]12CC[C@@H]3c4ccc(O)cc4C[C@@H](CCCCCCCCC[S+]([O-])CCCC(F)(F)C(F)(F)F)[C@H]3[C@@H]1CC[C@@H]2O` (stereo partly shown) [Fulvestrant, 7-(9-(4,4,5,5,5-pentafluoropentylsulfinyl)nonyl) estra-1,3,5(10)-triene-3,17-diol], the aqueous solubility entry is given as “extremely low”.
